Read-outs that look alike come from different tables or passages of the source.

The experiment relates to M. mycetomatis genome strain MM55. Nature of the experiment: CLSI M38-A2 based in vitro susceptibility screening (XTT or resazurin), growth at fixed concentration. The class given is cell-based, Madurella mycetomatis. The following applies: Madurella mycetomatis.
Setting [1] is: 25 uM, mean of replicates, MM55, read-out: Percentage survival at 25um, 25 uM mean.
[2] abbreviates: 25 uM, replicate A, MM55, read-out: Percentage survival at 25um, 25 um A.
Where [3] appears, read: 25 uM, replicate B, MM55, read-out: Percentage survival at 25um, 25 uM B.
The mark [4] stands for this setting: 25 uM, replicate C, MM55, read-out: Percentage survival at 25um, 25 uM C.
The mark [5] stands for this setting: 100 uM, mean of replicates, MM55, read-out: Percentage survival at 100um, 100 uM mean.
Setting [6] is: 100 uM, replicate 1, MM55, read-out: Percentage survival at 100um, 100 uM A.
Where [7] appears, read: 100 uM, replicate 2, MM55, read-out: Percentage survival at 100um, 100 uM A.
Setting [8] is: 100 uM, replicate 3, MM55, read-out: Percentage survival at 100um, 100 uM A.
Setting [9] is: 25 uM, mean of three replicates, read-out: Percentage survival at 25um, 25 uM mean.
The mark [10] stands for this setting: 25 uM, replicate A, read-out: Percentage survival at 25um, 25 um A.
The mark [11] stands for this setting: 25 uM, replicate B, read-out: Percentage survival at 25um, 25 uM B.
[12] abbreviates: 25 uM, replicate C, read-out: Percentage survival at 25um, 25 uM C.
[13] abbreviates: 100 uM, first replicate column, read-out: Percentage survival at 100um, 100 uM A.
The mark [14] stands for this setting: 100 uM, mean of three replicates, read-out: Percentage survival at 100um, 100 uM mean.
[15] abbreviates: 100 uM, second replicate column, read-out: Percentage survival at 100um, 100 uM A.
Setting [16] is: 100 uM, third replicate column, read-out: Percentage survival at 100um, 100 uM A.
The mark [17] stands for this setting: 25 uM, mean, read-out: Percentage survival at 25um, 25 uM mean.
Where [18] appears, read: 100 uM, mean, read-out: Percentage survival at 100um, 100 uM mean.
Where [19] appears, read: 100 uM, replicate (first column), read-out: Percentage survival at 100um, 100 uM A.
[20] abbreviates: 100 uM, replicate (second column), read-out: Percentage survival at 100um, 100 uM A.
[21] abbreviates: 100 uM, replicate (third column), read-out: Percentage survival at 100um, 100 uM A.

`CCC[C@H](NC(=O)[C@@H]1[C@H]2CCC[C@H]2CN1C(=O)[C@@H](NC(=O)[C@@H](NC(=O)c1cnccn1)C1CCCCC1)C(C)(C)C)C(=O)C(=O)NC1CC1` [MMV1580494]: the activity at 25 µM runs as follows: under setting [1], 85.9%; under setting [2], 89.9%; under setting [3], 95.2%; under setting [4], 72.5%. The activity at 100 µM is 89.5% under setting [5], 96.1% under setting [6], 101% under setting [7] and 71.1% under setting [8].
`COc1cccc(N2CCN(C3=Nc4c(F)cccc4[C@H](CC(=O)O)N3c3cc(C(F)(F)F)ccc3OC)CC2)c1` [MMV690653]: the activity at 25 µM under setting [9] is 91%, the activity at 25 µM under setting [10] came to 89.7%, the activity at 25 µM under setting [11] was 103% and the activity at 25 µM under setting [12] worked out at 80%. The activity at 100 µM was found to be 86.6% under setting [13], 86.8% under setting [14], 87.2% under setting [15] and 86.5% under setting [16].
Consider `CCc1cc(Cc2cnc(N)nc2N)cc2c1N(C)CCC2C` (stereo not shown) [MMV1582490], for which the activity at 25 µM is 67.6% (25 uM, mean of replicates, read-out: Percentage survival at 25um, 25 uM mean); 71.5% under setting [10]; 64.7% under setting [11]; 66.5% under setting [12]. For the same compound, the activity at 100 µM turned out to be 69.5% (100 uM, mean of replicates, read-out: Percentage survival at 100um, 100 uM mean); 63.4% (100 uM, replicate 1, read-out: Percentage survival at 100um, 100 uM A); 83.5% (100 uM, replicate 2, read-out: Percentage survival at 100um, 100 uM A); 61.6% (100 uM, replicate 3, read-out: Percentage survival at 100um, 100 uM A).
`O=C(O)C[C@H]1CC[C@H](c2ccc(-c3ccc(Nc4ccc(C(F)(F)F)nc4)cn3)cc2)CC1` [MMV1580498]: the activity at 25 µM by setting is: under setting [1], 72.2%; under setting [2], 72.4%; under setting [3], 58.9%; under setting [4], 85.2%. Further, the activity at 100 µM runs as follows: under setting [5], 80.6%; under setting [6], 82.3%; under setting [7], 88.6%; under setting [8], 70.8%.
For `C[C@@]1(O)[C@H](O)[C@@H](CO)O[C@H]1n1ccc2c(N)ncnc21` [MMV1593519], the activity at 25 µM under setting [9] amounted to 94.2%, the activity at 25 µM under setting [10] came to 94.4%, the activity at 25 µM under setting [11] came to 105% and the activity at 25 µM under setting [12] came to 83.4%. For the same compound, the activity at 100 µM is 80.2% under setting [13], 86.2% under setting [14], 92.3% under setting [15] and 86.2% under setting [16].
With `N[C@H]1CCC[C@H]1C(=O)O` [MMV1634361], the activity at 25 µM amounted to 92.1% under setting [1], 98.3% under setting [2], 98.6% under setting [3] and 79.4% under setting [4]. Further, the activity at 100 µM under setting [5] is 96.6%, the activity at 100 µM under setting [6] was 90.9%, the activity at 100 µM under setting [7] was 120% and the activity at 100 µM under setting [8] was found to be 79.2%.
As for `OC(Cn1cncn1)(Cn1cncn1)c1ccc(F)cc1F` [MMV002337], the activity at 25 µM is 113% under setting [17], 137% under setting [10], 52.7% under setting [11] and 150% under setting [12]. The activity at 100 µM is, setting by setting: under setting [18], 1.38%; under setting [19], -3.44%; under setting [20], 4.59%; under setting [21], 3.01%.
Regarding `O=C(CC1Sc2ncnn2C1=O)Nc1ccc(Br)cc1` (stereo not shown) [MMV214956], the activity at 25 µM under setting [9] is 63.2%, the activity at 25 µM under setting [10] came to 56.2%, the activity at 25 µM under setting [11] came to 60% and the activity at 25 µM under setting [12] was 73.5%. In addition, the activity at 100 µM under setting [14] was -1.13%; the activity at 100 µM (100 uM, replicate 1, read-out: Percentage survival at 100um, 100 uM A (first replicate column)) is -7.27%; the activity at 100 µM (100 uM, replicate 3, read-out: Percentage survival at 100um, 100 uM A (third replicate column)) was 3.91%. Also, the Percent fungal survival at 100 µM (100 uM, replicate 2, read-out: Percentage survival at 100um, 100 uM A (second replicate column)) is -0.0182%.
`CN(C/C=C/C#CC(C)(C)C)Cc1cccc2ccccc12` [MMV1634359]: the activity at 25 µM is, setting by setting: under setting [17], 97.3%; under setting [10], 132%; under setting [11], 99.8%; under setting [12], 60.4%. The activity at 100 µM under setting [18] was 81.5%, the activity at 100 µM under setting [19] came out at 86.8%, the activity at 100 µM under setting [20] came to 58.9% and the activity at 100 µM under setting [21] was determined as 98.8%.
Regarding `C[C@@H](NC(=O)c1cccc(-c2c[nH]c(-c3cc4ccccc4cn3)n2)c1)c1ccc(F)cc1` [MMV1782211], the activity at 25 µM under setting [1] turned out to be 77%, the activity at 25 µM under setting [2] was 80.9%, the activity at 25 µM under setting [3] turned out to be 86% and the activity at 25 µM under setting [4] is 64.2%. For the same compound, the activity at 100 µM reads like this: under setting [5], 70%; under setting [6], 78.5%; under setting [7], 73.3%; under setting [8], 58.3%.
Regarding `Cc1cc(C)n(O)c(=O)c1` [MMV1782389], the activity at 25 µM runs as follows: under setting [17], 81.5%; under setting [10], 87.4%; under setting [11], 82.9%; under setting [12], 74.1%. The activity at 100 µM by setting is: under setting [18], 81.6%; under setting [19], 67.6%; under setting [20], 78.2%; under setting [21], 99.1%.
On to `O=C(NO)C1(CS(=O)(=O)c2ccc(Oc3ccc(Cl)cc3)cc2)CCOCC1` [MMV690706], for which the activity at 25 µM turned out to be 82% under setting [1], 85.7% under setting [2], 90.9% under setting [3] and 69.4% under setting [4]. Further, the activity at 100 µM runs as follows: under setting [5], 68.5%; under setting [6], 72.4%; under setting [7], 62.8%; under setting [8], 70.2%.
In the case of `CC[C@@]1(O)C(=O)OCc2c1cc1n(c2=O)Cc2cc3c([N+](=O)[O-])cccc3nc2-1` [MMV1580796], the activity at 25 µM is 95.3% under setting [2]; 102% (read-out: Percentage survival at 25um, 25 uM B); 81.7% (read-out: Percentage survival at 25um, 25 uM C); 93.1% (read-out: Percentage survival at 25um, 25 uM mean). Moreover, the activity at 100 µM under setting [5] stood at 86.8%, the activity at 100 µM under setting [6] stood at 97.1%, the activity at 100 µM under setting [7] came out at 84.7% and the activity at 100 µM under setting [8] is 78.6%.
For `CCn1cc(C(=O)O)c(=O)c2cc(F)c(N3CCNC(C)C3)c(F)c21` (stereo not shown) [MMV002350], the activity at 25 µM came to 91.3% under setting [1], 97.9% under setting [2], 93.8% under setting [3] and 82.3% under setting [4]. In addition, the activity at 100 µM was found to be 89% under setting [5], 92.8% under setting [6], 92.2% under setting [7] and 82.2% under setting [8].
With `O=C1[C@H](CC[C@H](O)c2ccc(F)cc2)[C@@H](c2ccc(O)cc2)N1c1ccc(F)cc1` [MMV1581377], the activity at 25 µM under setting [9] stood at 91.9%, the activity at 25 µM under setting [10] was determined as 82.7%, the activity at 25 µM under setting [11] was found to be 93.7% and the activity at 25 µM under setting [12] came out at 99.2%. The activity at 100 µM by setting is: under setting [13], -3.71%; under setting [14], 43.8%; under setting [15], 57.6%; under setting [16], 77.4%.
Regarding `COc1ccc(NS(=O)(=O)c2ccc(Cl)s2)cn1` [MMV1580499], the activity at 25 µM under setting [9] is 85%, the activity at 25 µM under setting [10] is 77.6%, the activity at 25 µM under setting [11] is 91.2% and the activity at 25 µM under setting [12] amounted to 86.3%. The activity at 100 µM reads like this: under setting [13], 64.6%; under setting [14], 61.8%; under setting [15], 69.9%; under setting [16], 50.9%.
In the case of `COc1ccc(C[C@@H](C)[C@@H](C)Cc2ccc(OC)c(OC)c2)cc1OC` [MMV1581036], the activity at 25 µM worked out at 68.5% under setting [1], 72.1% under setting [2], 71.5% under setting [3] and 61.9% under setting [4]. Besides, the activity at 100 µM under setting [5] stood at 52.6%, the activity at 100 µM under setting [6] came out at 50.8%, the activity at 100 µM under setting [7] amounted to 58.7% and the activity at 100 µM under setting [8] was determined as 48.3%.

For the origin of these results see PMC8815882, “Screening the pandemic response box identified benzimidazole carbamates, Olorofim and ravuconazole as promising drug candidates for the treatment of eumycetoma” (PLoS Neglected Tropical Diseases, 2022).
